# The source made the active and inactive calls. The rule behind the calls is not given here.
# Columns and labels:
# Assay type in all cases: functional, cell-based
# [1] = system: L929; assay: Anti-necroptotic activity in TZ-induced mouse L929 cells assessed as increase in cell viability preincubated with Z-VAD-FMK followed by mTNFalpha stimulation for 4 hrs and measured after compound addition by CellTiter-Lumi luminescent cell viability assay
# [2] = system: HT-29; assay: Anti-necroptotic activity in TSZ-induced human HT-29 cells assessed as increase in cell viability preincubated with Z-VAD-FMK and SM164 for 30 mins followed by TNFalpha stimulation for 12 hrs and measured after compound addition by CellTiter-Lumi luminescent cell viability assay
# [3] = system: RAW264.7; assay: Anti-necroptotic activity in LZ-induced mouse RAW264.7 cells assessed as increase in cell viability preincubated with compound followed by LPS and Z-VAD-FMK stimulation and measured after 16 hrs by CellTiter-Lumi luminescent cell viability assay
# [4] = system: HT-29; assay: Effect on RIPK1 protein level in human HT-29 cells at 10 microg/ml incubated for 9 hrs by Western blot analysis; details: dose 10.0 µg/ml
# [5] = system: HT-29; assay: Effect on RIPK3 protein level in human HT-29 cells at 10 microg/ml incubated for 9 hrs by Western blot analysis; details: dose 10.0 µg/ml
# [6] = system: HT-29; assay: Effect on MLKL protein level in human HT-29 cells at 10 microg/ml incubated for 9 hrs by Western blot analysis; details: dose 10.0 µg/ml
SMILES,EC50 [1] [µM],EC50 [2] [µM],Activity [3],Activity [4],Activity [5],Activity [6]
CC1(C)CC[C@]2(C(=O)N3CCC(c4ccccc4)CC3)CC[C@]3(C)[C@H](C(=O)C=C4[C@@]5(C)C=C(C#N)C(=O)C(C)(C)[C@@H]5CC[C@]43C)[C@@H]2C1,> 10,5.8,–,–,–,–
CC1(C)CC[C@]2(C(=O)O)[C@H](O)C[C@]3(C)C(=CC[C@@H]4[C@@]5(C)CC[C@H](O)C(C)(C)[C@@H]5CC[C@]43C)[C@@H]2C1,> 10,> 10,–,–,–,–
CC1(C)CC[C@]2(C(=O)Nc3nsc4ccccc34)CC[C@]3(C)[C@H](C(=O)C=C4[C@@]5(C)C=C(C#N)C(=O)C(C)(C)[C@@H]5CC[C@]43C)[C@@H]2C1,> 10,3.96,–,–,–,–
COC(=O)[C@]12CCC(C)(C)C[C@H]1[C@H]1C(=O)C=C3[C@@]4(C)C5C(C(=O)C(C)(C)[C@@H]4CC[C@@]3(C)[C@]1(C)CC2)N5CC#N (stereo partly drawn),> 10,> 10,–,–,–,–
CC1(C)CC[C@]2(C(=O)N3CCc4ccccc43)CC[C@]3(C)[C@H](C(=O)C=C4[C@@]5(C)C=C(C#N)C(=O)C(C)(C)[C@@H]5CC[C@]43C)[C@@H]2C1,> 10,> 10,–,–,–,–
CC1(C)CC[C@]2(C(=O)Nc3cnc4ccccc4n3)CC[C@]3(C)[C@H](C(=O)C=C4[C@@]5(C)C=C(C#N)C(=O)C(C)(C)[C@@H]5CC[C@]43C)[C@@H]2C1,> 10,2.39,–,–,–,–
CC1(C)CC[C@]2(C(=O)Nc3ccc4ncoc4c3)CC[C@]3(C)[C@H](C(=O)C=C4[C@@]5(C)C=C(C#N)C(=O)C(C)(C)[C@@H]5CC[C@]43C)[C@@H]2C1,2.84,2,Dose-dependent-effect,–,–,–
C[C@@H]1C[C@@H]([C@H](O)CC2CC(=O)NC(=O)C2)C(=O)[C@@H](C)C1,–,–,–,inactive,inactive,inactive
CC1(C)CC[C@]2(C(=O)N3CCC(c4ccccc4)C3)CC[C@]3(C)[C@H](C(=O)C=C4[C@@]5(C)C=C(C#N)C(=O)C(C)(C)[C@@H]5CC[C@]43C)[C@@H]2C1 (stereo partly drawn),> 10,3.81,–,–,–,–
Cn1c(NC(=O)[C@]23CCC(C)(C)C[C@H]2[C@H]2C(=O)C=C4[C@@]5(C)C=C(C#N)C(=O)C(C)(C)[C@@H]5CC[C@@]4(C)[C@]2(C)CC3)nc2ccccc21,> 10,3.97,–,–,–,–
CC1(C)CC[C@]2(C(=O)O)CC[C@]3(C)[C@H](C(=O)C=C4[C@@]5(C)C=C(C(N)=O)C(=O)C(C)(C)[C@@H]5CC[C@]43C)[C@@H]2C1,> 10,2.2,–,–,–,–
CC1(C)CC[C@]2(C(=O)Nc3ccc4scnc4c3)CC[C@]3(C)[C@H](C(=O)C=C4[C@@]5(C)C=C(C#N)C(=O)C(C)(C)[C@@H]5CC[C@]43C)[C@@H]2C1,4.01,1.38,Dose-dependent-effect,–,–,–
COC(=O)[C@]12CCC(C)(C)C[C@H]1[C@H]1C(=O)C=C3[C@@]4(C)C5NC5C(=O)C(C)(C)[C@@H]4CC[C@@]3(C)[C@]1(C)CC2 (stereo partly drawn),> 10,> 10,–,–,–,–
CC1(C)CC[C@]2(C(=O)n3cnc4ccccc43)CC[C@]3(C)[C@H](C(=O)C=C4[C@@]5(C)C=C(C#N)C(=O)C(C)(C)[C@@H]5CC[C@]43C)[C@@H]2C1,> 10,2.35,–,–,–,–
CC1(C)CC[C@]2(C(=O)N3Cc4ccccc4C3)CC[C@]3(C)[C@H](C(=O)C=C4[C@@]5(C)C=C(C#N)C(=O)C(C)(C)[C@@H]5CC[C@]43C)[C@@H]2C1,> 10,1.65,–,–,–,–
